Measurements: BigSolDB 2.1

OCCCCCCO
solubility (mole fraction)
Details	283.15 K	288.15 K	293.15 K	298.15 K	303.15 K
in DMAc	0.0205	0.0298	0.0469	0.0688	0.0939
in methanol	0.365	0.428	0.51	0.585	0.698
in n-butanol	0.316	0.389	0.479	0.577	0.689
